From patent US12144864B2, “Tubulysins and protein-tubulysin conjugates” (Regeneron Pharmaceuticals, Inc., priority 2018, dated 2024)
Like-named read-outs stand apart in the source and are kept apart here.

What was measured:
C4-2 cells = assay: Cell-based killing assay of payloads (CellTiter-Glo), C4-2 cells; parameters: species or system human; settings: 5-day incubation; for IC50: Homo sapiens, C4-2, 120 h, average ± SD where replicates; for C4-2 % Kill: at maximum concentration tested (100 − % viable cells)
Procedure, shortened: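 Viability readout is CellTiter-Glo luminescence after a 5-day exposure to 10-point, threefold-diluted payloads spanning 100 nM–[…], following overnight attachment of 4000 cells/well. Four-parameter logistic fit gives IC50 in M; % kill taken at highest concentration tested.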

T47D cells = assay: Cell-based killing assay of payloads (CellTiter-Glo), T47D cells; parameters: species or system human; settings: 5-day incubation; for IC50: Homo sapiens, T47D, 120 h; for T47D % Kill: at maximum concentration tested
Experimental: (§1) To test the ability of the disclosed tubulysin payloads to kill human cell lines, an in vitro cytotoxicity assay was performed. In vitro cytotoxicity of the disclosed payloads, as well as reference compounds, were evaluated using the CellTiter-Glo Assay Kit (Promega, Cat #G7573), in which the quantity of ATP present is used to determine the number of viable cells in culture. For the assay, C4-2, HEK293, or T47D cells were seeded at 4000 cells/well on Nunclon white 96-well plates in complete growth medium (DME high glucose:Ham's F12 at 4:1, 10% FBS, 100 units/ml Penicillin, 100 ug/ml streptomycin, 53 ug/ml glutatmine, 10 ug/ml insulin, 220 ng/ml biotin, 12.5 pg/ml T3, 12.5 ug/ml Adenine, 4 ug/ml transferrin for C42 cells; DME high glucose, 10% FBS, 100 units/ml Penicillin, 100 ug/ml streptomycin, 53 ug/ml glutatmine for HEK293; RPMI, 10% FBS, 100 units/ml Penicillin, 100 ug/ml streptomycin, 53 ug/ml glutatmine, 10 ug/ml insulin, 10 mM HEPEs, 200 nM Sodium Pyruvate for T47D cells) and grown overnight at 37° C. in 5% CO2. For cell viability curves, 1:3 serially diluted payloads were added to the cells at final concentrations ranging from 100 nM to […], including a no treatment control group, and were then incubated for 5 days. After the 5-day incubation, cells were incubated at room temperature with 100 μL of CellTiter-Glo reagents for 10 minutes. Relative luminescence units (RLU) were determined on a Victor plate reader (PerkinElmer). The IC50 values were determined from a four-parameter logistic equation over a 10-point response curve (GraphPad Prism). All IC50 values are expressed in molar (M) concentration. The percent cell killing (% kill) at the maximum concentration tested was estimated from the following formula (100−% viable cells). Averages±standard deviation (SD) are included where replicate experiments were performed.

HEK293 cells = assay: Cell-based killing assay of payloads (CellTiter-Glo), HEK293 cells; parameters: species or system human; settings: 5-day incubation; for IC50: Homo sapiens, HEK293, 120 h; for HEK293 % Kill: at maximum concentration tested
Experimental: as §1

HCT15 cells = assay: cells; assay type: cell-based, human; settings: HCT15 cells; for HCT-15 + verapamil % Kill / HCT-15 % Kill: maximum % cell killing
Procedure, shortened: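 Five-day exposure of 1000 HCT15 cells/well to threefold payload dilutions, run both plus and minus verapamil (5 ug/mL) in RPMI with 10% FBS. ATP luminescence (CellTiter-Glo) gives viability; four-parameter logistic fit of 10 points yields IC50, and 100 − % viable at highest dose gives % kill.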

HL60/MX2 cells = assay: Cytotoxicity in panel of MDR cell lines, HL60/MX2 (72 h and 144 h); assay type: cell-based, human; settings: for IC50: Homo sapiens
Procedure, shortened: (§2)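 Luminescent ATP readout (CellTiter-Glo) quantified viable cells after 72 h or 144 h exposure to 1:3 serial payload dilutions. Cells plated at 1000/well in their normal growth media. IC50 in M from a four-parameter logistic fit; % kill at top concentration taken as 100 − % viable.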

MES-SA/MX2 cells = assay: Cytotoxicity in panel of MDR cell lines, MES-SA/MX2 (72 h and 144 h); assay type: cell-based, human; settings: for IC50: Homo sapiens
Procedure, shortened: as §2

HCT-15 cells = assay: Cytotoxicity in panel of MDR cell lines, HCT-15 (72 h and 144 h); assay type: cell-based, human; settings: for IC50: Homo sapiens
Procedure, shortened: as §2

H69AR cells = assay: Cytotoxicity in panel of MDR cell lines, H69AR (72 h and 144 h); assay type: cell-based, human; settings: for IC50: Homo sapiens
Procedure, shortened: as §2

[1] = with 5 ug/mL Verapamil, read-out: HCT-15 + verapamil IC50
[2] = Homo sapiens, HCT-15, without Verapamil, read-out: HCT-15 IC50
[3] = 72 h incubation, read-out: HL60/MX2 IC50 72 h
[4] = 144 h incubation, read-out: HL60/MX2 IC50 144 h
[5] = 72 h incubation, read-out: MES-SA/MX2 IC50 72 h
[6] = 144 h incubation, read-out: MES-SA/MX2 IC50 144 h
[7] = 72 h incubation, read-out: HCT-15 IC50 72 h
[8] = 144 h incubation, read-out: HCT-15 IC50 144 h
[9] = 72 h incubation, read-out: H69AR IC50 72 h
[10] = 144 h incubation, read-out: H69AR IC50 144 h

C#CCCCCN(C(=O)[C@@H](NC(=O)[C@H]1CCCCN1C)[C@@H](C)CC)[C@H](C[C@@H](OC(C)=O)c1nc(C(=O)N[C@@H](Cc2ccc(O)cc2)C[C@H](C)C(=O)O)cs1)C(C)C [IVf, (2S,4R)-4-({2-[(1R,3R)-1-(Acetyloxy)-3-[(2S,3S)—N-(hex-5-yn-1-yl)-3-methyl-2-{[(2R)-1-methylpiperidin-2-yl]formamido}pentanamido]-4-methylpentyl]-1,3-thiazol-4-yl}formamido)-5-(4-hydroxyphenyl)-2-methylpentanoic acid]
IC50 (C4-2 cells): 0.229 nM
C4-2 % Kill (C4-2 cells): 93.8%
IC50 (T47D cells): 0.782 nM
T47D % Kill (T47D cells): 67.1%
IC50 (HEK293 cells): 1.64 nM
HEK293 % Kill (HEK293 cells): 86.0%
HCT-15 + verapamil % Kill (HCT15 cells; with 5 ug/mL Verapamil): 97.7%
IC50 (HCT15 cells; [1]): 0.686 nM
HCT-15 % Kill (HCT15 cells; without Verapamil): 96.4%
IC50 (HCT15 cells; [2]): 0.554 nM
HL60/MX2 % Kill 72 h (HL60/MX2 cells; 72 h incubation): 97.2%
HL60/MX2 % Kill 144 h (HL60/MX2 cells; 144 h incubation): 100%
IC50 (HL60/MX2 cells; [3]): 0.222 nM
IC50 (HL60/MX2 cells; [4]): < 0.015 nM
MES-SA/MX2 % Kill 72 h (MES-SA/MX2 cells; 72 h incubation): 99.1%
MES-SA/MX2 % Kill 144 h (MES-SA/MX2 cells; 144 h incubation): 99.9%
IC50 (MES-SA/MX2 cells; [5]): 2.57 nM
IC50 (MES-SA/MX2 cells; [6]): 3.82 nM
HCT-15 % Kill 72 h (HCT-15 cells; 72 h incubation): 96.9%
HCT-15 % Kill 144 h (HCT-15 cells; 144 h incubation): 99.8%
IC50 (HCT-15 cells; [7]): 0.419 nM
IC50 (HCT-15 cells; [8]): 0.396 nM
H69AR % Kill 72 h (H69AR cells; 72 h incubation): 94.6%
H69AR % Kill 144 h (H69AR cells; 144 h incubation): 98.9%
IC50 (H69AR cells; [9]): 1.33 nM
IC50 (H69AR cells; [10]): 1.55 nM

C#CCCCCN(C(=O)[C@@H](NC(=O)[C@H]1CCCCN1C)[C@@H](C)CC)[C@H](C[C@@H](OC(C)=O)c1nc(C(=O)N[C@@H](Cc2ccc(N)cc2)C[C@H](C)C(=O)O)cs1)C(C)C [IVg, (2S,4R)-4-({2-[(1R,3R)-1-(Acetyloxy)-3-[(2S,3S)—N-(hex-5-yn-1-yl)-3-methyl-2-{[(2R)-1-methylpiperidin-2-yl]formamido}pentanamido]-4-methylpentyl]-1,3-thiazol-4-yl}formamido)-5-(4-aminophenyl)-2-methylpentanoic acid]
IC50 (C4-2 cells): 0.136 nM
C4-2 % Kill (C4-2 cells): 91.7%
IC50 (T47D cells): 0.413 nM
T47D % Kill (T47D cells): 62.9%
IC50 (HEK293 cells): 0.539 nM
HEK293 % Kill (HEK293 cells): 86.5%
HCT-15 + verapamil % Kill (HCT15 cells; with 5 ug/mL Verapamil): 97.5%
IC50 (HCT15 cells; [1]): 0.328 nM
HCT-15 % Kill (HCT15 cells; without Verapamil): 97.1%
IC50 (HCT15 cells; [2]): 0.46 nM
HL60/MX2 % Kill 72 h (HL60/MX2 cells; 72 h incubation): 98.5%
HL60/MX2 % Kill 144 h (HL60/MX2 cells; 144 h incubation): 100%
IC50 (HL60/MX2 cells; [3]): 0.124 nM
IC50 (HL60/MX2 cells; [4]): < 0.015 nM
MES-SA/MX2 % Kill 72 h (MES-SA/MX2 cells; 72 h incubation): 99.6%
MES-SA/MX2 % Kill 144 h (MES-SA/MX2 cells; 144 h incubation): 100%
IC50 (MES-SA/MX2 cells; [5]): 0.838 nM
IC50 (MES-SA/MX2 cells; [6]): 0.999 nM
HCT-15 % Kill 72 h (HCT-15 cells; 72 h incubation): 97.6%
HCT-15 % Kill 144 h (HCT-15 cells; 144 h incubation): 99.5%
IC50 (HCT-15 cells; [7]): 0.17 nM
IC50 (HCT-15 cells; [8]): 0.223 nM
H69AR % Kill 72 h (H69AR cells; 72 h incubation): 95.7%
H69AR % Kill 144 h (H69AR cells; 144 h incubation): 99.2%
IC50 (H69AR cells; [9]): 0.553 nM
IC50 (H69AR cells; [10]): 0.571 nM
